Earlier results in patent US20040067963A1, “Methods to prevent or ameliorate trauma-related psychological disorders” (University of Florida, priority 2002, published 2004).

What was measured:
PTSD in 53 civilians = conditions: up to 60 mg/day
[1] = tested on: patients with HRV parameters indicating autonomic dysregulation characteristic of PTSD; conditions: 16 patients, 20-60 mg of fluoxetine, vs controls
[2] = tested on: patients with combat-related PTSD; conditions: 301 patients, by week 6 of treatment, normal to upper range of usual antidepressant doses
outpatients with PTSD = conditions: 12 week trial, 187 outpatients with PTSD, primarily female victims of sexual assault

SMILES	effect on symptom severity vs placebo (PTSD in 53 civilians; by week 2-4)	effectiveness on most measures, including disability improvement, vs placebo (PTSD in 53 civilians; by week 12)	heart rate variability (HRV) [1]	total Treatment Outcome PTSD rating scale score, change from baseline vs placebo [2]	efficacy compared with placebo (outpatients with PTSD)
CNCCC(Oc1ccc(C(F)(F)F)cc1)c1ccccc1 (centres unmarked) [fluoxetine]	significantly more effect on symptom severity than placebo	more effective on most measures	significantly higher HRV than controls	statistically significant improvement from baseline	–
CN[C@H]1CC[C@@H](c2ccc(Cl)c(Cl)c2)c2ccccc21 [sertraline]	–	–	–	–	significant superiority
